# Like-named read-outs stand apart in the source and are kept apart here.
# Tests used:
# SW620 cells [1] = assay: SRB cell viability (cytotoxicity), SW620; type: cell-based, human; conditions: for Selectivity Index SI3: CHO-K1/SW620 IC50 ratio; for Selectivity Index SI4: HaCaT/SW620 IC50 ratio; for IC50: Homo sapiens, SW-620, SRB, read-out: IC50 ± SEM SW620
# Description: (§1) Human colon cancer cell lines (SW480 and SW620), together with nonmalignant cells (CHO-K1 and HaCaT) were used to study the biological activity. Cells were purchased from the European Collection of Authenticated Cell Cultures (ECACC, UK). Dulbecco’s Modified Eagle Medium (DMEM) containing heat-inactivated (56 °C) horse serum (10%), non-essential amino acids (1%) and antibiotics (penicillin/streptomycin, 1%) (Gibco Invitrogen, Carlsbad, CA, USA) was used to maintain the cells, reducing the horse serum to 3%, and, adding insulin ([…]), transferrin ([…]) and selenium (5 ng/mL) (ITS-defined medium; Gibco, Invitrogen, Carlsbad, CA, USA) for all the experiments.
# (§2) The colorimetric test with Sulforhodamine B (SRB) was used to evaluate cell viability. Cell density was adjusted to seed 20.000 cells/well in 96-well tissue culture plates. Cells were first incubated for 24 h and then treated with the synthesized hybrids, the lead compounds (PIH and resveratrol), and the reference drug (5-FU) (concentrations between 0.01 and 200 µM), using DMSO (below 1%) as vehicle control. The optimum conditions were 37 °C and 5% CO2. After the end of each treatment, cold trichloroacetic acid (MERCK, 50% v/v) was added and preserved for one hour at 4 °C, to fix the cells. Then, cell proteins were stained with 0.4% (w/v) SRB (Sigma-Aldrich, St. Louis, MO, USA), and subsequently washed with acetic acid (1%) to remove unbound SRB. After air-drying, protein-bound SRB was solubilized in 10 mM Tris-base before reading the absorbance at 492 nm in a microplate reader (Mindray MR-96A). All experiments were performed at least three times.
# SW480 cells [2] = assay: Cell cycle analysis (PI flow cytometry), SW480; type: cell-based, human; conditions: SW480, 48 h treatment
# Description: Cell staining with the fluorescent propidium iodide (PI) was used to measure cell cycle distribution. The assays were carried out following the previous methodology described by Nicoletti et al. (1991). Briefly, 2.5 × 10^5 cells/well were seeded in 6-well tissue culture plates at 37 °C and 5% CO2. After 24 h of adherence, cells were treated during 48 h with hybrids 6e and 7, together with the vehicle control. At the end of each treatment, cells were scraped, and the centrifuged pellet was resuspended in 1.8 mL of 70% ethanol at 4 °C to fix the cells overnight. Then, after centrifugation, cells were washed twice in versene buffer to completely remove the alcohol, besides, they were further resuspended in 300 µL of PBS containing 0.25 mg/mL RNAse (Type I-A, Sigma-Aldrich, Darmstadt, Germany) and 0.1 mg/mL PI. After the incubation in the dark (for 30 min at room temperature), 10,000 events were analyzed with a FACS Canto II flow cytometer and the software BD FACS Diva 6.1.3. (BD Biosciences, San Jose, CA, USA). The PI fluorescence signal was analyzed with excitation at 488 nm (using a Sapphire laser), and detection at 610 nm. The cell cycle model was fixed with FlowJo 7.6.2 (Ashland, OR, USA), applying the Dean-Jett-Fox model.
# SW480 cells [3] = assay: Mitochondrial membrane potential (DiOC6/PI flow cytometry), SW480; type: cell-based, human; conditions: for Q1: PI-positive cells with membrane damage / Q2: PI-positive cells with membrane damage / Q3: DiOC6 high, live cells with high membrane polarization / Q4: DiOC6 low, cells in latency that lose membrane polarization: SW480, treated at IC50 value, DiOC6/PI
# Description: (§3) To evaluate changes in mitochondrial membrane permeability, the fluorescent dyes DiOC6 (3,3′-dihexyloxacarbocyanine iodide, Thermo Fisher Scientific, Waltham, MA, USA) and propidium iodide (PI) were used. Cell density was adjusted to seed 2.5 × 10^5 cells/well in 6-well tissue culture plates. […] Subsequently, cells were scraped with the same culture mean and stained with both fluorescent dyes, incubating at room temperature for 30 min in darkness. For each sample, 10,000 events were analyzed through flow cytometry with excitation at 488 nm and detection of the emission with the green (530/15 nm) and the red (610/20 nm) filters. The results informed about the cells with depolarized mitochondrial membranes.
# SW480 cells [4] = assay: Antiproliferative activity (SRB, 2-8 days), SW480; type: cell-based; conditions: Homo sapiens, read-out: Viability (%) ± SE; for viability at 3 µM: SW480, 3 µM; for viability at 6 µM: SW480, 6 µM; for viability at 12 µM: SW480, 12 µM; for viability at 24 µM: SW480, 24 µM; for viability at 48 µM: SW480, 48 µM
# Description: The procedure for evaluating the antiproliferative activity was carried out using the same colorimetric test (SRB) described for cell viability, with minor modifications. Briefly, 2500 cells/well were seeded in 96-well tissue culture plates and incubated as in the previously described conditions for 0, 2, 4, 6, and 8 days. […] The culture medium was changed every 48 h. After each incubation time, cells were fixed, stained, and read as previously described for this technique.
# SW480 cells [5] = assay: SRB cell viability (cytotoxicity), SW480; type: cell-based, human; conditions: for Selectivity Index SI1: CHO-K1/SW480 IC50 ratio; for Selectivity Index SI2: HaCaT/SW480 IC50 ratio; for IC50: Homo sapiens, SW480, SRB, read-out: IC50 ± SEM SW480; for selectivity (SI): SW480 versus the nonmalignant cell lines, 48 h after treatment
# Description: as §1, §2
# HaCaT cells = assay: SRB cell viability (cytotoxicity), HaCaT; type: cell-based; conditions: Homo sapiens, HaCaT nonmalignant cells, read-out: IC50 ± SEM HACAT
# Description: as §1, §2
# CHO-K1 cells = assay: SRB cell viability (cytotoxicity), CHO-K1; type: cell-based; conditions: Cricetulus griseus, CHO-K1 nonmalignant cells, read-out: IC50 ± SEM CHO
# Description: as §1, §2
# SW620 cells [6] = assay: Mitochondrial membrane potential (DiOC6/PI flow cytometry), SW620; type: cell-based, human; conditions: SW620, treated at IC50 value
# Description: as §3
compound,measurement,setting,value
"COc1ccc(C(=O)N/N=C/c2c(O)cc(O)cc2/C=C/c2ccc(O)cc2)c(OC)c1 [6e, N′-((E)-2,4-dihydroxy-6-((E)-4-hydroxystyryl)benzylidene)-2,4-dimethoxybenzohydrazide]",Selectivity Index SI3,SW620 cells [1]; 24 H,0.28
same,Selectivity Index SI4,SW620 cells [1]; 24 H,0.46
same,Selectivity Index SI3,SW620 cells [1]; 48 H,0.67
same,Selectivity Index SI4,SW620 cells [1]; 48 H,0.69
same,IC50,SW620 cells [1]; 24 H,74.8 ± 12.9 µM
same,IC50,SW620 cells [1]; 48 H,27.8 ± 3.9 µM
same,Cell cycle distribution G0/G1,SW480 cells [2],58.95%
same,Cell cycle distribution G2/M,SW480 cells [2],21.31%
same,Q1: PI-positive cells with membrane damage,SW480 cells [3],0.288%
same,Q2: PI-positive cells with membrane damage,SW480 cells [3],0.831%
same,"Q3: DiOC6 high, live cells with high membrane polarization",SW480 cells [3],98.6%
same,"Q4: DiOC6 low, cells in latency that lose membrane polarization",SW480 cells [3],0.305%
same,viability at 3 µM,"SW480 cells [4]; 48 h, 2 days after plating",95 ± 3.11%
same,viability at 6 µM,"SW480 cells [4]; 48 h, 2 days after plating",58.9 ± 0.89%
same,viability at 12 µM,"SW480 cells [4]; 48 h, 2 days after plating",38.4 ± 2.67%
same,viability at 24 µM,"SW480 cells [4]; 48 h, 2 days after plating",23.9 ± 0.82%
same,viability at 48 µM,"SW480 cells [4]; 48 h, 2 days after plating",9.44 ± 1.17%
same,viability at 3 µM,"SW480 cells [4]; 96 h, 4 days after plating",68.5 ± 1.31%
same,viability at 6 µM,"SW480 cells [4]; 96 h, 4 days after plating",10.5 ± 0.87%
same,viability at 12 µM,"SW480 cells [4]; 96 h, 4 days after plating",2.78 ± 0.42%
same,viability at 24 µM,"SW480 cells [4]; 96 h, 4 days after plating",0.81 ± 0.38%
same,viability at 48 µM,"SW480 cells [4]; 96 h, 4 days after plating",0.3 ± 0.33%
same,viability at 3 µM,"SW480 cells [4]; 144 h, 6 days after plating",49 ± 2.08%
same,viability at 6 µM,"SW480 cells [4]; 144 h, 6 days after plating",5.03 ± 0.19%
same,viability at 12 µM,"SW480 cells [4]; 144 h, 6 days after plating",0.76 ± 0.36%
same,viability at 24 µM,"SW480 cells [4]; 144 h, 6 days after plating",0%
same,viability at 48 µM,"SW480 cells [4]; 144 h, 6 days after plating",0%
same,viability at 3 µM,"SW480 cells [4]; 192 h, 8 days after plating",33.86 ± 0.3%
same,viability at 6 µM,"SW480 cells [4]; 192 h, 8 days after plating",2.52 ± 0.1%
same,viability at 12 µM,"SW480 cells [4]; 192 h, 8 days after plating",0.48 ± 0.11%
same,viability at 24 µM,"SW480 cells [4]; 192 h, 8 days after plating",0%
same,viability at 48 µM,"SW480 cells [4]; 192 h, 8 days after plating",0%
same,Selectivity Index SI1,SW480 cells [5]; 24 H,0.85
same,Selectivity Index SI2,SW480 cells [5]; 24 H,1.42
same,Selectivity Index SI1,SW480 cells [5]; 48 H,2.89
same,Selectivity Index SI2,SW480 cells [5]; 48 H,2.94
same,IC50,SW480 cells [5]; 24 H,24.2 ± 3.29 µM
same,IC50,SW480 cells [5]; 48 H,6.5 ± 1.9 µM
same,selectivity (SI),SW480 cells [5],> 1
same,IC50,HaCaT cells; 24 H,34.4 ± 3.96 µM
same,IC50,HaCaT cells; 48 H,19.1 ± 0.8 µM
same,IC50,CHO-K1 cells; 24 H,20.6 ± 3.06 µM
same,IC50,CHO-K1 cells; 48 H,18.8 ± 1.9 µM
"O=C(N/N=C/c1c(O)cc(O)cc1/C=C/c1ccc(O)cc1)c1ccncc1 [compound 7, N′-((E)-2,4-dihydroxy-6-((E)-4-hydroxystyryl)benzylidene)isonicotinohydrazide]",Selectivity Index SI3,SW620 cells [1]; 24 H,0.55
same,Selectivity Index SI4,SW620 cells [1]; 24 H,0.64
same,Selectivity Index SI3,SW620 cells [1]; 48 H,1.06
same,IC50,SW620 cells [1]; 24 H,122 ± 10.8 µM
same,IC50,SW620 cells [1]; 48 H,38.4 ± 3.3 µM
same,selectivity (SI),"SW620 cells [1]; SW620 versus the nonmalignant cell lines, 48 h after treatment",> 1
same,effect on mitochondrial membrane potential (ΔΨm),"SW480 cells [3]; SW480, regarding the control, increase in DiOC6 low population",causing depolarization in the mitochondrial membrane
same,Q1: PI-positive cells with membrane damage,SW480 cells [3],1.24%
same,Q2: PI-positive cells with membrane damage,SW480 cells [3],0.052%
same,"Q3: DiOC6 high, live cells with high membrane polarization",SW480 cells [3],67.3%
same,"Q4: DiOC6 low, cells in latency that lose membrane polarization",SW480 cells [3],31.4%
same,viability at 3 µM,"SW480 cells [4]; 48 h, 2 days after plating",100%
same,viability at 6 µM,"SW480 cells [4]; 48 h, 2 days after plating",90.5 ± 1.38%
same,viability at 12 µM,"SW480 cells [4]; 48 h, 2 days after plating",59.1 ± 0.27%
same,viability at 24 µM,"SW480 cells [4]; 48 h, 2 days after plating",27.2 ± 0.5%
same,viability at 48 µM,"SW480 cells [4]; 48 h, 2 days after plating",19.6 ± 2.58%
same,viability at 3 µM,"SW480 cells [4]; 96 h, 4 days after plating",99.45 ± 0.55%
same,viability at 6 µM,"SW480 cells [4]; 96 h, 4 days after plating",78.5 ± 1.56%
same,viability at 12 µM,"SW480 cells [4]; 96 h, 4 days after plating",11.4 ± 0.35%
same,viability at 24 µM,"SW480 cells [4]; 96 h, 4 days after plating",0%
same,viability at 48 µM,"SW480 cells [4]; 96 h, 4 days after plating",0%
same,viability at 3 µM,"SW480 cells [4]; 144 h, 6 days after plating",96.87 ± 0.14%
same,viability at 6 µM,"SW480 cells [4]; 144 h, 6 days after plating",67.4 ± 1.82%
same,viability at 12 µM,"SW480 cells [4]; 144 h, 6 days after plating",5.49 ± 0.05%
same,viability at 24 µM,"SW480 cells [4]; 144 h, 6 days after plating",0%
same,viability at 48 µM,"SW480 cells [4]; 144 h, 6 days after plating",0%
same,viability at 3 µM,"SW480 cells [4]; 192 h, 8 days after plating",74.76 ± 0.02%
same,viability at 6 µM,"SW480 cells [4]; 192 h, 8 days after plating",48.5 ± 1.11%
same,viability at 12 µM,"SW480 cells [4]; 192 h, 8 days after plating",2.52 ± 0.22%
same,viability at 24 µM,"SW480 cells [4]; 192 h, 8 days after plating",0%
same,viability at 48 µM,"SW480 cells [4]; 192 h, 8 days after plating",0%
same,Selectivity Index SI1,SW480 cells [5]; 24 H,0.80
same,Selectivity Index SI2,SW480 cells [5]; 24 H,0.94
same,Selectivity Index SI1,SW480 cells [5]; 48 H,2.14
same,Selectivity Index SI2,SW480 cells [5]; 48 H,2.49
same,IC50,SW480 cells [5]; 24 H,84.2 ± 10 µM
same,IC50,SW480 cells [5]; 48 H,19 ± 1.4 µM
same,selectivity (SI),SW480 cells [5],> 1
same,IC50,HaCaT cells; 24 H,79 ± 6.73 µM
same,IC50,HaCaT cells; 48 H,47.3 ± 2.5 µM
same,IC50,CHO-K1 cells; 24 H,67.2 ± 4.32 µM
same,IC50,CHO-K1 cells; 48 H,40.5 ± 2.4 µM
same,Q1: PI-positive cells with membrane damage,SW620 cells [6],2.19%
same,Q2: PI-positive cells with membrane damage,SW620 cells [6],1.54%
same,"Q3: DiOC6 high, live cells with high membrane polarization",SW620 cells [6],89.3%
same,"Q4: DiOC6 low, cells in latency that lose membrane polarization",SW620 cells [6],6.99%
